Reference: ChEMBL document CHEMBL3885881, “DrugMatrix”

Species: Rattus norvegicus
Assay: DrugMatrix - Regimen: Daily Repeat
Assay type: toxicity, organism-based, Sprague-Dawley
Design: regimen Daily Repeat, gender Male, age 6-8 weeks
Conditions: in vivo, route none, vehicle 100 % UNTREATED
[1] = 0 mg/kg, 120 h, tissue Blood, dose level Control, time 5 day
[2] = 0 mg/kg, 120 h, tissue Plasma, dose level Control, time 5 day
[3] = 0 mg/kg, […], tissue Blood, dose level Control, time 14 day
[4] = 0 mg/kg, […], tissue Plasma, dose level Control, time 14 day
[5] = 50 mg/kg, 120 h, tissue Blood, dose level Low, time 5 day
[6] = 50 mg/kg, 120 h, tissue Plasma, dose level Low, time 5 day
[7] = 50 mg/kg, […], tissue Blood, dose level Low, time 14 day
[8] = 50 mg/kg, […], tissue Plasma, dose level Low, time 14 day
[9] = 60 mg/kg, 120 h, tissue Blood, dose level M1, time 5 day

Diet_Restriction
ABSOLUTE BASOPHIL [1]: 0 CELLS/uL
ABSOLUTE EOSINOPHIL [1]: 42.67 CELLS/uL
ABSOLUTE LYMPHOCYTE [1]: 11593.33 CELLS/uL
ABSOLUTE MONOCYTE [1]: 174.33 CELLS/uL
ABSOLUTE SEGMENTED NEUTROPHIL [1]: 1356.33 CELLS/uL
BASOPHIL [1]: 0%
EOSINOPHIL [1]: 0.33%
ERYTHROCYTE COUNT [1]: 5.67 x10E6/uL
HEMATOCRIT [1]: 43.37%
HEMOGLOBIN [1]: 12.33 G/DL
LEUKOCYTE COUNT [1]: 13.17 x10E3/uL
LYMPHOCYTE [1]: 88%
MEAN CORPUSCULAR HEMOGLOBIN [1]: 21.77 pg
MEAN CORPUSCULAR HEMOGLOBIN CONCENTRATION [1]: 36.93 G/DL
MEAN CORPUSCULAR VOLUME [1]: 58.9 fL
NUCLEATED RED BLOOD CELLS [1]: 0 /100WBC
PLATELET COUNT [1]: 942.33 x10E3/uL
ALANINE AMINOTRANSFERASE [2]: 42.67 u/L
ALBUMIN [2]: 4.2 G/DL
ALKALINE PHOSPHATASE [2]: 336.33 u/L
ASPARTATE AMINOTRANSFERASE [2]: 74 u/L
BLOOD UREA NITROGEN [2]: 12.67 mg/dL
CARBON DIOXIDE [2]: 32.33 mmol/L
CHOLESTEROL [2]: 78.67 mg/dL
CREATINE PHOSPHOKINASE [2]: 847.33 u/L
CREATININE [2]: 0.22 mg/dL
LACTATE DEHYDROGENASE [2]: 139.67 u/L
POTASSIUM [2]: 6.74 MEQ/L
TOTAL BILIRUBIN [2]: 0.13 mg/dL
URIC ACID [2]: 1.3 mg/dL
ABSOLUTE BASOPHIL [3]: 0 CELLS/uL
ABSOLUTE EOSINOPHIL [3]: 46.33 CELLS/uL
ABSOLUTE LYMPHOCYTE [3]: 13977 CELLS/uL
ABSOLUTE MONOCYTE [3]: 264.67 CELLS/uL
ABSOLUTE SEGMENTED NEUTROPHIL [3]: 1445.33 CELLS/uL
BASOPHIL [3]: 0%
EOSINOPHIL [3]: 0.33%
ERYTHROCYTE COUNT [3]: 6.27 x10E6/uL
LEUKOCYTE COUNT [3]: 15.73 x10E3/uL
LYMPHOCYTE [3]: 89%
MEAN CORPUSCULAR HEMOGLOBIN [3]: 22.27 pg
MEAN CORPUSCULAR HEMOGLOBIN CONCENTRATION [3]: 37.13 G/DL
NEUTROPHIL [3]: 9%
NUCLEATED RED BLOOD CELLS [3]: 0 /100WBC
PLATELET COUNT [3]: 923 x10E3/uL
ALANINE AMINOTRANSFERASE [4]: 48.67 u/L
ALKALINE PHOSPHATASE [4]: 360 u/L
ASPARTATE AMINOTRANSFERASE [4]: 67 u/L
CARBON DIOXIDE [4]: 32 mmol/L
CHLORIDE [4]: 99 MEQ/L
CHOLESTEROL [4]: 92.67 mg/dL
CREATINE PHOSPHOKINASE [4]: 220.67 u/L
CREATININE [4]: 0.19 mg/dL
LACTATE DEHYDROGENASE [4]: 88.33 u/L
LIPASE [4]: 10 u/L
PHOSPHORUS [4]: 13.07 mg/dL
POTASSIUM [4]: 6.69 MEQ/L
TOTAL BILIRUBIN [4]: 0.17 mg/dL
TOTAL PROTEIN [4]: 6.33 G/DL
URIC ACID [4]: 1.9 mg/dL
ABSOLUTE BASOPHIL [5]: 0 CELLS/uL
ABSOLUTE EOSINOPHIL [5]: 0 CELLS/uL
ABSOLUTE LYMPHOCYTE [5]: 5557.67 CELLS/uL
ABSOLUTE MONOCYTE [5]: 33.33 CELLS/uL
ABSOLUTE SEGMENTED NEUTROPHIL [5]: 409 CELLS/uL
BASOPHIL [5]: 0%
EOSINOPHIL [5]: 0%
ERYTHROCYTE COUNT [5]: 6.2 x10E6/uL
HEMOGLOBIN [5]: 13.47 G/DL
LEUKOCYTE COUNT [5]: 6 x10E3/uL
LYMPHOCYTE [5]: 93%
MEAN CORPUSCULAR HEMOGLOBIN [5]: 21.73 pg
MEAN CORPUSCULAR HEMOGLOBIN CONCENTRATION [5]: 37.13 G/DL
MEAN CORPUSCULAR VOLUME [5]: 58.43 fL
MONOCYTE [5]: 0.67%
NEUTROPHIL [5]: 6.33%
NUCLEATED RED BLOOD CELLS [5]: 0 /100WBC
PLATELET COUNT [5]: 1004.67 x10E3/uL
ALBUMIN [6]: 4.4 G/DL
ALKALINE PHOSPHATASE [6]: 272.67 u/L
ASPARTATE AMINOTRANSFERASE [6]: 69 u/L
BLOOD UREA NITROGEN [6]: 10 mg/dL
CHOLESTEROL [6]: 67.33 mg/dL
CREATININE [6]: 0.15 mg/dL
GLUCOSE [6]: 121.33 mg/dL
LACTATE DEHYDROGENASE [6]: 95.33 u/L
LIPASE [6]: 10 u/L
PHOSPHORUS [6]: 10.03 mg/dL
POTASSIUM [6]: 6.08 MEQ/L
SODIUM [6]: 146.6 MEQ/L
TOTAL BILIRUBIN [6]: 0.13 mg/dL
TOTAL PROTEIN [6]: 6.27 G/DL
URIC ACID [6]: 1.13 mg/dL
ABSOLUTE BASOPHIL [7]: 0 CELLS/uL
ABSOLUTE EOSINOPHIL [7]: 34 CELLS/uL
ABSOLUTE LYMPHOCYTE [7]: 10004 CELLS/uL
ABSOLUTE MONOCYTE [7]: 145.67 CELLS/uL
ABSOLUTE SEGMENTED NEUTROPHIL [7]: 1049.67 CELLS/uL
BASOPHIL [7]: 0%
EOSINOPHIL [7]: 0.33%
ERYTHROCYTE COUNT [7]: 7.11 x10E6/uL
HEMATOCRIT [7]: 38.27%
LEUKOCYTE COUNT [7]: 11.23 x10E3/uL
LYMPHOCYTE [7]: 89.33%
MEAN CORPUSCULAR HEMOGLOBIN [7]: 19.8 pg
MEAN CORPUSCULAR HEMOGLOBIN CONCENTRATION [7]: 36.77 G/DL
MEAN CORPUSCULAR VOLUME [7]: 53.83 fL
NEUTROPHIL [7]: 9%
NUCLEATED RED BLOOD CELLS [7]: 0 /100WBC
PLATELET COUNT [7]: 891.33 x10E3/uL
ALANINE AMINOTRANSFERASE [8]: 40.33 u/L
ALBUMIN [8]: 4.2 G/DL
ALKALINE PHOSPHATASE [8]: 255.67 u/L
ASPARTATE AMINOTRANSFERASE [8]: 75 u/L
BLOOD UREA NITROGEN [8]: 15 mg/dL
CHOLESTEROL [8]: 62.33 mg/dL
CREATINE PHOSPHOKINASE [8]: 467.33 u/L
CREATININE [8]: 0.22 mg/dL
GLUCOSE [8]: 163.67 mg/dL
LACTATE DEHYDROGENASE [8]: 62.33 u/L
POTASSIUM [8]: 5.28 MEQ/L
TOTAL BILIRUBIN [8]: 0.1 mg/dL
TOTAL PROTEIN [8]: 6.1 G/DL
URIC ACID [8]: 1.5 mg/dL
ABSOLUTE BASOPHIL [9]: 0 CELLS/uL
ABSOLUTE EOSINOPHIL [9]: 49.33 CELLS/uL
ABSOLUTE LYMPHOCYTE [9]: 3766.67 CELLS/uL
ABSOLUTE MONOCYTE [9]: 29.33 CELLS/uL
ABSOLUTE SEGMENTED NEUTROPHIL [9]: 454.67 CELLS/uL
